The conditions of data set [1]: cited from earlier work.
The subject of data set [2] is Pseudomonas aeruginosa, Staphylococcus aureus, Candida albicans, Aspergillus brasiliensis, Escherichia coli. The data set is described as follows: Antimicrobial Efficacy Test (AET) according to USP-NF monograph <51>. Format: cell-based. To be noted: dexamethasone eye drops, pH 5.0, USP-NF AET methodology. As to the method:
For assessing the antimicrobial preservative agents, an Antimicrobial Efficacy Test (AET) is performed according to both USP-NF and EP standards • USP-NF: “American Pharmacopoeia” monograph <51> • EP: “European Pharmacopoeia” monograph […]
Those AETs consist in challenging the drug formulation containing an antimicrobial preservative agent at a certain concentration with specific microbial strains. The results are provided in microbial reduction expressed in logarithmic units. The acceptance criteria are specific of each standard (either US or EU) according to the table below. For being declared as passing the test, all the criteria must be achieved over the 28 days period. If at least one criterion is missed, then the whole test is declared failed.
AET acceptance criteria (microbial burden reduction in Log units)
Based on current knowledge those three microbial challenge tests (AETs), also known in the past as preservative efficacy tests (PET), are known to be more or less difficult to pass. EP/A test is known to be the most difficult one to pass. EB/B is less difficult than EB/A. USP-NF test is usually less difficult or sometimes equivalent to EP/B.

For the molecule `CCCCOC(=O)c1ccc(O)cc1` [BPB, butyl paraben], the “Water solubility (at 20° C.)” value in data set [1] is on record as “Low (0.25%)”. For the same molecule, the “Temperature Stability” value in data set [1] (in words) is listed as “Yes”.
In the case of `C/C=C/C=C/C(=O)[O-].[K+]` [KS, Potassium sorbate], in data set [1], the “Water solubility (at 20° C.)” value was “Good (>50%)”. Also, the “Temperature Stability” value in data set [1] (in words) is given as “Medium”. Moreover, in data set [2], the “minimum effective dose of potassium sorbate used as an antimicrobial agent” value amounted to 0.235 % w/v.
Take `C/C=C/C=C/C(=O)O` [SA, (2E,4E)-hexa-2,4-dienoic acid]: the “Water solubility (at 20° C.)” value in data set [1] is “Low (0.15%)”. Also, in data set [1] (in words), the “Temperature Stability” value is on record as “Low” and the solubility in water result is recorded as “slightly soluble in water”. For the same molecule, the “Log P(octanol/water)” value in data set [1] (octanol/water) was 1.3.

Values taken from patent US20240390515A1, “MULTIDOSE OPHTHALMIC COMPOSITIONS” (Oculis Operations Sàrl, priority 2022, published 2024).
